Source: PMC4661694, “Aminopeptidase T of M29 Family Acts as A Novel Intracellular Virulence Factor for Listeria monocytogenes Infection” (Scientific Reports, 2015)

Biological target: T1, Lmo1603 (Listeria monocytogenes, UniProt Q8Y6T0)
T1 construct: tag removal not mentioned
Assay: p-nitroaniline release, absorbance […] nm
Format: biochemical
Details: 50 mM Tris-HCl pH 8.5, 2 mM substrate, 5 uM enzyme, 12 h

T1 sequence (Q8Y6T0 entry or part of it): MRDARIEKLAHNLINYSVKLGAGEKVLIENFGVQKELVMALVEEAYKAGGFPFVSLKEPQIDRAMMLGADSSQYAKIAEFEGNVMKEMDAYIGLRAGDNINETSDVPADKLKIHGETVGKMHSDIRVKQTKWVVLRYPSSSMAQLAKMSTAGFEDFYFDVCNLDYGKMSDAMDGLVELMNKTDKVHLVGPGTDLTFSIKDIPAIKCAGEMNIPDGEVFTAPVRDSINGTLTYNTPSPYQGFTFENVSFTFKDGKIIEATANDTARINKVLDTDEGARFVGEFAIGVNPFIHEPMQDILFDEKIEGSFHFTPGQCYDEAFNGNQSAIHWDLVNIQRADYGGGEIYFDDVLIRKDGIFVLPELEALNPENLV

Structure (SMILES)	p-nitroaniline release, absorbance 405 nm (cobalt-activated enzyme)	p-nitroaniline release, absorbance 405 nm
N=C(N)NCCC[C@H](N)C(=O)Nc1ccc([N+](=O)[O-])cc1 [Arg-pNA]	Lmo1603 showed the highest activity towards Arg-pNA, followed by Leu-pNA and Ala-pNA	–
CC(C)C[C@H](N)C(=O)Nc1ccc([N+](=O)[O-])cc1 [Leu-pNA]	–	Lmo1603 showed the highest activity towards Arg-pNA, followed by Leu-pNA and Ala-pNA
